Measured values published in patent publication US8815908B2, “Compounds and methods for inhibiting phosphate transport” (Ardelyx, Inc., priority 2010, dated 2014).

Key:
rat NaP2b (SLC34A2) = molecular target: T1, rat NaP2b (SLC34A2) (Rattus norvegicus, UniProt Q9JJ09); test: Inhibition of NaP2b-mediated Pi uptake into transfected HEK293 cells (rat); type: cell-based; conditions: 33P Pi uptake, 100 uM KH2PO4, read-out: pIC50 range for rat Nap2b (converted)
T1 construct: host or cells: HEK293
T1 sequence (Q9JJ09 1-695): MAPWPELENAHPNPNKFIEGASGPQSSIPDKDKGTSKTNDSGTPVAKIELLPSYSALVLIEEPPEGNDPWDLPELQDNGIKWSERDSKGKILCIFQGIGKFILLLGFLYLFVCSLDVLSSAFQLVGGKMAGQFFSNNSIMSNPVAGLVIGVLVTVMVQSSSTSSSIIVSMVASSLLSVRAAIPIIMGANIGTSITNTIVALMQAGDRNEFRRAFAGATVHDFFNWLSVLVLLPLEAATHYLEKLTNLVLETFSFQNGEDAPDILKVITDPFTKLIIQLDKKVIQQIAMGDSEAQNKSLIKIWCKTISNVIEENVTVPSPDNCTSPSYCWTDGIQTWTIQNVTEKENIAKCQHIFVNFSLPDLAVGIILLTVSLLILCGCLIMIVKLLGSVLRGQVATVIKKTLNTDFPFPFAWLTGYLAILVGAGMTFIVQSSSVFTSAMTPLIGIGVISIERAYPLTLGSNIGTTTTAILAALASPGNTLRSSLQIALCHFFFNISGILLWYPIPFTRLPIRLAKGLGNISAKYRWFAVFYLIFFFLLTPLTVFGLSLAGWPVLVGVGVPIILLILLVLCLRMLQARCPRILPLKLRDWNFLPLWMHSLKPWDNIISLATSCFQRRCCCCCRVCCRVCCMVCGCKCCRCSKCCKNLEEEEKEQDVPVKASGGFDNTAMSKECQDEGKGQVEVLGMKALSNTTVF
Description: (§1) HEK293 cells were obtained from the American Type Culture collection and propagated per their instructions. Expression clones for rat and human NaP2b (SLC34A2) were obtained from Open Biosystems (Catalog numbers MRN1768-9510282, and MHS1010-99823026, respectively). The sequence of the human protein was mutated to insert a threonine after residue 37, and to introduce a N39D mutation.
(§2) The rate of phosphate (Pi) uptake into HEK293 cells was measured using a modification of the method described by Mohrmann et al. (Mohrmann, I., Mohrmann, M., Biber, J., and Murer, H. (1986) Am. J. Phys. 250(3 Pt 1):G323-30.) Transfected HEK293 cells were treated with a pharmacological agent to minimize endogenous PiT-mediated phosphate transport activity, such that the only remaining sodium-dependent phosphate transport activity is that which was bestowed by introduction of the NaP2b genes.
Cells were seeded into 96-well plates at 25,000 cells/well and cultured overnight. Lipofectamine 2000 (Invitrogen) was used to introduce the NaP2b cDNA, and the cells were allowed to approach confluence during a second overnight incubation. […] Cells were then overlayed with either choline uptake buffer or sodium uptake buffer (14 mM Tris, 137 mM sodium chloride, 5.4 mM KCl, 2.8 mM CaCl2, 1.2 mM MgSO4, 100 uM KH2PO4, PiT-silencing agent, 1 mg/mL Bovine Serum Albumin, pH 7.4) containing 6-9 uCi/mL ^33P orthophosphoric acid (Perkin Elmer) and test compound. Each compound was tested at twelve concentrations ranging from 0.1 nM to 30 uM. Assays were run in duplicate.
(§3) After incubation for 3-30 minutes at room temperature, assay mixtures were removed, and the cells were washed twice with ice cold stop solution (137 mM sodium chloride, 14 mM Tris, pH 7.4). Cells were lysed by addition of 20 μL 0.1% Tween 80 followed by 100 μL scintillation fluid, and counted using a TopCount (Perkin Elmer).
(§4) pIC50 (the negative log of the IC50) values of the test compounds were calculated using GraphPad Prism.

human NaP2b (SLC34A2) = molecular target: T2, human NaP2b (SLC34A2) (Homo sapiens, UniProt O95436); test: Inhibition of NaP2b-mediated Pi uptake into transfected HEK293 cells (human); type: cell-based; conditions: 33P Pi uptake, 100 uM KH2PO4, human protein with Thr inserted after residue 37 and N39D, read-out: pIC50 range for human (converted)
T2 construct: host or cells: HEK293
T2 sequence (O95436 1-690): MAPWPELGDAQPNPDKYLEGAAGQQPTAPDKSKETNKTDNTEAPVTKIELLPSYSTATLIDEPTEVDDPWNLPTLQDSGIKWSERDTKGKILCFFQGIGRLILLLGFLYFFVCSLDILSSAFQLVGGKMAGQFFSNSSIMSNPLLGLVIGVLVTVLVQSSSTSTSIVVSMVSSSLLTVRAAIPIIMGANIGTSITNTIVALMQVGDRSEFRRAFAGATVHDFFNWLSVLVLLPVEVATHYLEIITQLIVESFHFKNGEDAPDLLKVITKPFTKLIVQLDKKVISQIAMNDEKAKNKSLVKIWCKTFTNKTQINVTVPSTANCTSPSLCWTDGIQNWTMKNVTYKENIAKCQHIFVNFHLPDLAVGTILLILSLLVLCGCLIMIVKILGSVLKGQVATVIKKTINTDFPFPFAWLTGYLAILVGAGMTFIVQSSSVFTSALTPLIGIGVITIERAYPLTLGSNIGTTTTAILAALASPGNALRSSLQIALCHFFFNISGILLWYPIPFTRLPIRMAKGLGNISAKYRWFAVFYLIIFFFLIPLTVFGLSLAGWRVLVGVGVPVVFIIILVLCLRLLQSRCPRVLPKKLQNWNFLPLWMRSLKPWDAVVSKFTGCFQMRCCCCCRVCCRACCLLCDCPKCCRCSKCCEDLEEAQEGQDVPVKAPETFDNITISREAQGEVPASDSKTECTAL
Description: as §1, §2
Cells were seeded into 96-well plates at 25,000 cells/well and cultured overnight. […]
as §3, §4

[1] = Determination of compound Cmax and AUC after oral gavage; type: in vivo, Sprague-Dawley rats; conditions: Sprague-Dawley, rat plasma; for AUC: blood at 0.5-4 h
Description: Blood samples were processed to plasma using K2EDTA as an anticoaglulant. Plasma samples were treated with acetonitrile containing an internal standard, precipitated proteins removed by centrifugation. Supernatants were analyzed by LC-MS/MS and compound concentrations were determined by interpolated from a standard curve prepared in plasma. All compounds were orally dosed at the dosage shown, and pharmacokinetic parameters determined.

[2] = Fecal recovery of orally administered compounds; type: in vivo, Sprague-Dawley rats; conditions: rat, oral gavage, feces collected until 48 hr after dosing; same animals as Example 6
Description: The animals were kept in metabolic cages and feces were collected from the time of dosing until 48 hr after dosing. Upon collection, feces was dried by lyophilization and ground to a visually homogenous powder. Duplicate samples of ground feces from each individual animal were weighed out and extracted using organic solvent. Extracted samples were then diluted into mobile phase and test compound levels were quantitatively determined by LC-MS/MS analysis as described in Example 6 except that the standard curve was prepared in a feces matrix.

[3] = tested on: uptake of phosphorus from the intestine; test: In vivo evaluation, co-dosing in chow: inhibition of uptake of phosphorus from the intestine; parameters: species or system Sprague-Dawley rats; conditions: rat, compound in chow, mean drug dose 115 mg/kg/day, versus control group
Source text: Male, 7-week-old Sprague-Dawley rats (Charles-River laboratories international, Hollister, Calif.) were allowed to acclimate for a minimum of 3 days. The experiment was initiated by switching animals to a synthetic diet (0.6% phosphorus and 0.6% calcium, Harlan Teklad TD.84122) for four days. After this time, the animals were placed into metabolic cages for daily monitoring of food and water consumption, as well as urine and fecal collections. Test compounds were incorporated into the powdered diet listed above containing 3% chocolate flavoring (w/w, BioServ #7345) at 1.3 mg test compound per gram of diet to achieve an average daily nominal dose of 100 mg/kg/day. The actual dose received by each animal was later determined by measuring prepared diet consumption and body weight. Urine samples were collected in three daily periods from 24-48, 48-72, and 72-96 hours of drug dosing. […] Phosphorus levels in the urine were determined by anion exchange chromatography using a Dionex ICS-3000 ion chromatography system. […] Elution of urine phosphate ions was monitored via conductivity detector and reported as ppm relative to a standard ion solution containing phosphate. Daily urinary P output relative to the P consumed in the prepared diet for each animal was calculated. […] The differences between the means of control and treated groups were evaluated by t tests.

NaPi2b = test: Competition with phosphate: Pi uptake assay repeated at 2.1 vs 0.1 mM phosphate; type: cell-based; conditions: potency at 2.1 vs 0.1 mM phosphate
Description: To ascertain if an inhibitor was competitive for binding with phosphate, the procedure was repeated, but raising the concentration of the substrate in the assay mixture from 0.1 to 2.1 mM phosphate.

| IC50 (rat NaP2b (SLC34A2)) | Cmax ([1]; actual oral dose 7.5 mg/kg, LLOQ 10 ng/mL) | AUC ([1]; actual oral dose 7.5 mg/kg) | SMILES | IC50 (human NaP2b (SLC34A2)) | Cmax ([1]; actual oral dose 11 mg/kg, LLOQ 0.5 ng/mL) | AUC ([1]; actual oral dose 11 mg/kg) | % recovered in feces [2] | Mean % inhibition Urine Pout/P consumed [3] | Competitive with respect to Pi? (NaPi2b) |
| --- | --- | --- | --- | --- | --- | --- | --- | --- | --- |
| 2000 to 25100 nM | – | – | COCCNC(=O)c1cccc(SCc2cccc(C(=O)Nc3ccc(N4CCCCC4)cc3C(=O)c3cc4ccc(C(F)(F)F)cc4[nH]3)c2)c1 [Example 3, N-(2-Methoxyethyl)-3-(3-(4-(piperidin-1-yl)-2-(6-(trifluoromethyl)-1H-indole-2-carbonyl)phenylcarbamoyl)benzylthio)benzamide] | – | – | – | – | – | – |
| 1000 to 7940 nM | 299 ng/mL | 433 ng·h/mL | O=C(O)CCSCc1cccc(C(=O)Nc2ccc(N3CCCCC3)cc2C(=O)c2cc3ccc(C(F)(F)F)cc3[nH]2)c1 [Example 1, 3-(3-((4-(Piperidin-1-yl)-2-(6-(trifluoromethyl)-1H-indole-2-carbonyl)phenyl)carbamoyl)benzylthio)propanoic acid] | 1000 to 7940 nM | – | – | 34% | – | – |

| SMILES | IC50 (rat NaP2b (SLC34A2)) | Cmax ([1]; actual oral dose 7.5 mg/kg, LLOQ 10 ng/mL) | AUC ([1]; actual oral dose 7.5 mg/kg) | IC50 (human NaP2b (SLC34A2)) | Cmax ([1]; actual oral dose 11 mg/kg, LLOQ 0.5 ng/mL) | AUC ([1]; actual oral dose 11 mg/kg) | % recovered in feces [2] | Mean % inhibition Urine Pout/P consumed [3] | Competitive with respect to Pi? (NaPi2b) |
| --- | --- | --- | --- | --- | --- | --- | --- | --- | --- |
| CN(CCN1CCOCC1)C(=O)c1cccc(C(=O)Nc2ccc(N3CCCCC3)cc2C(=O)c2cc3ccc(C(F)(F)F)cc3[nH]2)c1 [Example 2, N1-Methyl-N1-(2-morpholinoethyl)-N3-(4-(piperidin-1-yl)-2-(6-(trifluoromethyl)-1H-indole-2-carbonyl)phenyl)isophthalamide 2,2,2-trifluoroacetate] | < 1000 nM | – | – | < 1000 nM | 91 ng/mL | < 97 ng·h/mL | 2.9% | 20% | No |
